Structures are written as SMILES.

Data on five molecules can be found in ChEMBL document CHEMBL4138268, “Discovery of Spiro Oxazolidinediones as Selective, Orally Bioavailable Inhibitors of p300/CBP Histone Acetyltransferases” (ACS Med Chem Lett, 2018).

Data set [1] deals with CREB-binding protein/Histone acetyltransferase p300 (Homo sapiens, UniProt Q09472+Q92793). The data set is described as follows: Inhibition of p300/CBP (unknown origin) using biotinylated synthetic Histone H4 Peptide as substrate pretreated for 30 mins followed by substrate addition measured after 1 hr by radiometric scintillation proximity assay. The class given is protein assay.

Data set [2] can be described thus: Permeability of the compound by PAMPA. The class given is ADME. (In general: The PAMPA barrier holds no transporters, so it reflects passive diffusion.)
The subject of data set [3] is Mus musculus. The data set is described as follows: Plasma clearance in mouse at 1 mg/kg, iv. Type of data set: ADME, organism-based. The settings on record: in vivo.
The nature of data set [4]: Oral bioavailability in mouse. Type of data set: ADME, organism-based. The settings on record: in vivo.
Data set [5] can be described thus: Unbound intrinsic clearance in mouse microsomes. The class given is ADME, Microsome.
Data set [6] is described as follows: Unbound fraction in human microsomes. Type of data set: ADME, Microsome.
Data set [7] is described as follows: Protein binding in mouse plasma. Type of data set: ADME, cell-free.
The species named for data set [8] is Mus musculus. Put plainly: Unbound plasma clearance in mouse. Particulars: in vivo. Type of data set: ADME, organism-based.
Data set [9] can be described thus: AUC in mouse at 10 mg/kg, po. Particulars: in vivo. Type of data set: ADME, organism-based.
Data set [10] is described as follows: Clearance in mouse microsomes. The class given is ADME, Microsome.

With `CC(C1CC1)N(Cc1ccccc1)C(=O)CN1C(=O)NC(Cc2c[nH]c3ccccc23)C1=O` (stereo not drawn), the IC50 in [1] came to 5.1 µM.

Turning to `CNC(=O)Nc1ccc2c(c1)CC[C@]21NC(=O)N(CC(=O)N(Cc2ccccc2)[C@@H](C)C2CC2)C1=O`, the permeability in data set [2] is on record as 0.47 ×10⁻⁶ cm/s.

As to `C[C@@H](C1CC1)N(Cc1ccccc1)C(=O)CN1C(=O)NC(c2ccccc2)C1=O` (stereo partly drawn), in data set [1], the IC50 was found to be 7.6 µM.

Consider `CNC(=O)Nc1ccc2c(c1)CC[C@@]21OC(=O)N(CC(=O)N(Cc2ccccc2)[C@@H](C)C2CC2)C1=O`, for which the permeability in data set [2] came out at 2.35 ×10⁻⁶ cm/s. Besides, the CL in the data set with Mus musculus [3] is 27 mL/min/kg. Besides, the bioavailability in [4] is 40%. The CL free is 3130 mL/min/kg in [5] and 3100 mL/min/kg in the data set listed under Mus musculus [8]. Further, the Fu in [6] is 0.48. This molecule came in with a PPB in [7] of 99.1%. For the same molecule, the AUC in [9] is 2500 ng·h/mL. Besides, in data set [10], the intrinsic clearance (CLint scaled) is 1780 mL/min/kg.

For `Cc1ccccc1C1NC(=O)N(CC(=O)N(Cc2ccccc2)[C@@H](C)C2CC2)C1=O` (stereo partly drawn), the 50% inhibitory concentration (IC50) in [1] stood at 2.7 µM.

As a reminder, the IC50 is the concentration that gives 50% inhibition. For orientation: bioavailability means the share of a dose that reaches the circulation, judged against a reference dose that is usually intravenous. Low readings indicate little systemic uptake, high ones much systemic uptake. What is called AUC is the area under the concentration-time curve, a measure of exposure. High values mean more exposure, low ones less exposure. Usually CLint scaled stands for the capacity of the preparation to metabolise the compound, expressed as a volume cleared per time. A low value points to greater metabolic stability.
